From ChEMBL document CHEMBL5365467 (J Med Chem, 2023)
Activity calls are given as the source filed them. The calls are words filed in the database; no cut-off is given here.

Legend:
LNCaP = experiment: Growth inhibition in human LNCaP cells assessed as reduction in cell viability
[1] = target: Protein cereblon/Androgen receptor (Homo sapiens, UniProt P10275+Q96SW2); experiment: PROTAC activity at AR/CRBN in AR-positive human VCaP cells assessed as induction of androgen receptor degradation measured at 24 hrs; format: cell-based
Sequence of Protein cereblon/Androgen receptor (Q96SW2 whole entry, one chain of several): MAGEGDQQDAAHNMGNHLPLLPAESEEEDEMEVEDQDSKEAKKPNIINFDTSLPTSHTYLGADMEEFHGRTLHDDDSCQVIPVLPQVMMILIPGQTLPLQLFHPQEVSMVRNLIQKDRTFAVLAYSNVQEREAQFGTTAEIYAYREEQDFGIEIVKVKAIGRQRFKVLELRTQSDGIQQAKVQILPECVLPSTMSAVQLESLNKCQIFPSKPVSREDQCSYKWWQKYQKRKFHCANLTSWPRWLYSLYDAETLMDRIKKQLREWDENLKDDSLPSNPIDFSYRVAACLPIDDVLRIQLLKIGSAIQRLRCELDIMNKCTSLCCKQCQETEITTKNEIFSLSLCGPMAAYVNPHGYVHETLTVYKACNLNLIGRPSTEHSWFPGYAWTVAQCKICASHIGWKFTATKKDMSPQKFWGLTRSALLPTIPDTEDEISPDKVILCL

VCaP [2] = experiment: Downregulation of HAUS8 protein expression in human VCaP cells at 10 uM measured for 24 hrs by proteomics analysis; format: functional, cell-based
VCaP [3] = experiment: Downregulation of PCLAF protein expression in human VCaP cells at 10 uM measured for 24 hrs by proteomics analysis; format: functional, cell-based
VCaP [4] = experiment: Downregulation of PLOD2 protein expression in human VCaP cells at 10 uM measured for 24 hrs by proteomics analysis; format: functional, cell-based
[5] = Oral bioavailability in Sprague-Dawley rat at 3 mg/kg measured upto 24 hrs by LC-MS/MS analysis; format: ADME, organism-based; settings: in vivo
[6] = AUC (0 to t) in Sprague-Dawley rat at 1 mg/kg, iv measured upto 24 hrs by LC-MS/MS analysis; format: ADME, organism-based; parameters: dose 1 mg/kg, time < 24 hrs, route iv; settings: in vivo
Androgen receptor = target: T1, Androgen receptor (Homo sapiens, UniProt P10275)
T1 sequence (P10275 whole entry): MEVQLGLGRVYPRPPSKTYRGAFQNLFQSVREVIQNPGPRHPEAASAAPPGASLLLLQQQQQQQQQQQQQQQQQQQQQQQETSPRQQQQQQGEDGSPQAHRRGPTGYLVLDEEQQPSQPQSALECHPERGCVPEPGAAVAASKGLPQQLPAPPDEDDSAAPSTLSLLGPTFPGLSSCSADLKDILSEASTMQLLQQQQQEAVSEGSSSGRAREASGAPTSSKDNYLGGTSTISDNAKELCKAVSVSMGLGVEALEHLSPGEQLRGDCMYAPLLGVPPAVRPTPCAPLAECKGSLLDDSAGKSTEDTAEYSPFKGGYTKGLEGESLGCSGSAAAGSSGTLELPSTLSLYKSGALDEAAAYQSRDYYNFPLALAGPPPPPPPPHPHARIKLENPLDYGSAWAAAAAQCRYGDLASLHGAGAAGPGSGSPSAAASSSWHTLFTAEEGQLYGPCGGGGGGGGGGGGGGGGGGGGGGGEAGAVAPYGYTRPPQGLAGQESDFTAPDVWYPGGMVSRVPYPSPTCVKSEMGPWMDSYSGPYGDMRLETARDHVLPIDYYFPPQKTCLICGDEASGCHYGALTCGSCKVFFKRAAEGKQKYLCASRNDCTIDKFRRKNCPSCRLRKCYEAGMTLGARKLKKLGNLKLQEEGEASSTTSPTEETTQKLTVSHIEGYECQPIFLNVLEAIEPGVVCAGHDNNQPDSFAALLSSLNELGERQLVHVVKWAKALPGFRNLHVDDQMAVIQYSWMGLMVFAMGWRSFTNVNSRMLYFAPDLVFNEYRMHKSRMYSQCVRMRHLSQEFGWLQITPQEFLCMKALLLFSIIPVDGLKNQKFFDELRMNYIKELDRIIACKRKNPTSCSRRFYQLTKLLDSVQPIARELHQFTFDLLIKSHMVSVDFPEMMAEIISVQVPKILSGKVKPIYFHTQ

[7] = Cmax in Sprague-Dawley rat at 3 mg/kg, po measured upto 24 hrs by LC-MS/MS analysis; format: ADME, organism-based; parameters: dose 3 mg/kg, time < 24 hrs, route po; settings: in vivo
[8] = Clearance in Sprague-Dawley rat at 1 mg/kg, iv measured upto 24 hrs by LC-MS/MS analysis; format: ADME, organism-based; settings: in vivo
[9] = Volume of distribution at steady state in Sprague-Dawley rat at 1 mg/kg, iv measured upto 24 hrs by LC-MS/MS analysis; format: ADME, organism-based; settings: in vivo, read-out: Vdss
[10] = Half life in Sprague-Dawley rat at 3 mg/kg, po measured upto 24 hrs by LC-MS/MS analysis; format: ADME, organism-based; settings: in vivo
[11] = AUC (0 to t) in Sprague-Dawley rat at 3 mg/kg, po measured upto 24 hrs by LC-MS/MS analysis; format: ADME, organism-based; parameters: dose 3 mg/kg, time < 24 hrs, route po; settings: in vivo
[12] = Half life in Sprague-Dawley rat at 1 mg/kg, iv measured upto 24 hrs by LC-MS/MS analysis; format: ADME, organism-based; settings: in vivo
VCaP [13] = experiment: Growth inhibition in human VCaP cells
VCaP [14] = experiment: Antitumor activity against human VCaP cells xenografted in CB17-SCID mouse assessed as tumor growth inhibition at 10 mg/kg, po administered for 21 days; format: functional; settings: 504 h, time 21 day, read-out: TGI

IC50 (LNCaP) [nM]	IC50 (VCaP [13]) [nM]	Structure (SMILES)	DC50 [1]	Activity (VCaP [2])	Activity (VCaP [3])	Activity (VCaP [4])	bioavailability [5] [%]	AUC(0-t) at 24 h [6] [ng·h/mL]	IC50 (Androgen receptor) [nM]	Cmax [7] [ng/mL]	clearance [8] [mL/min/kg]	Vd [9] [L/kg]	half-life [10] [h]	AUC(0-t) at 24 h [11] [ng·h/mL]	half-life [12] [h]	inhibition in vivo at 10 mg/kg (VCaP [14]) [%]
213	–	CNC(=O)c1ccc(N2C(=S)N(c3ccc(C#N)c(C(F)(F)F)c3)C(=O)C2(C)C)cc1F [ENZALUTAMIDE]	–	–	–	–	–	–	–	–	–	–	–	–	–	–
–	–	C[C@H]1CC2(CCN(c3ccc(C(=O)N4CCN(C)CC4)cc3)CC2)CN1c1ccc(C#N)c(Cl)c1	Not Active	inactive	inactive	inactive	–	–	–	–	–	–	–	–	–	–
–	–	CN(c1ccc(C#N)c(Cl)c1)[C@H]1CC[C@H](NC(=O)c2ccc(N3CCN(C4CN(c5ccc6c(c5)C(=O)N(C5CCC(=O)NC5=O)C6=O)C4)CC3)cc2)CC1 (stereo not given in full)	–	–	–	–	13	1300	15	57	12.5	5.3	6.9	535	5.5	–
18.5	16.2	N#Cc1ccc(O[C@H]2CC[C@H](NC(=O)c3ccc(N4CCC(CN5CCN(c6cc7c(cc6F)C(=O)N(C6CCC(=O)NC6=O)C7=O)CC5)CC4)nn3)CC2)cc1Cl (stereo not given in full) [BAVDEGALUTAMIDE]	–	–	–	–	52	2270	–	280	6	4.6	27.1	3600	12	47
